Changes are numbered by the printed parent chain.
Columns and labels:
[1] = molecular target: T1, MKP3 R89A (Homo sapiens, UniProt Q16828, R89A); test: Phosphatase activity of MKP3 mutant toward pNPP with ERK2; assay type: biochemical; details: 1 µM enzyme, 1 µM ERK2, 8 mM pNPP, 2.5 μM BCI
T1 construct: MKP3(1–381) (MKP3^FL); made in house; host or cells: Escherichia coli BL21(DE3)
T1 sequence (Q16828 1-381 R89A): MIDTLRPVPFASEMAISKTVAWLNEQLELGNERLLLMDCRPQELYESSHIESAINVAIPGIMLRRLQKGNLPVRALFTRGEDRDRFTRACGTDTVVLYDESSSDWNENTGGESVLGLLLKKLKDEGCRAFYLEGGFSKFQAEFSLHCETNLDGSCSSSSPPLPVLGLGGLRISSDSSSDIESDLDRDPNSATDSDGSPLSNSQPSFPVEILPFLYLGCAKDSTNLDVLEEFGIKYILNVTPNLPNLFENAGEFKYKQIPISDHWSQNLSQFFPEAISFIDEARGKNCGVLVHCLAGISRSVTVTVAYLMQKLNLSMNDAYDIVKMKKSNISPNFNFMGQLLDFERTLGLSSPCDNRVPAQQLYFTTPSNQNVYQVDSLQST
Description: (§1) The phosphatase activity of MKP3 toward pNPP was measured using continuous spectrophotometric assays, either in the absence or the presence of ERK2 at a 1:1 M ratio with MKP3. Experiments were conducted at 25 °C in a reaction mixture with a total volume of 1.8 ml, containing 50 mM Mops (pH 7.0), 100 mM NaCl, and 0.1 mM EDTA. MKP3 (1 μM) was preincubated with varying concentrations of the inhibitor BCI for 5 min before initiating the reaction by adding pNPP at concentrations ranging from 0 to 14 mM. Continuous absorbance changes were recorded using a PerkinElmer LAMBDA 45 spectrophotometer equipped with a magnetic stirrer in the cuvette holder. The production of p-nitrophenol was monitored at 410 nm using an extinction coefficient of 18,000 M^-1 cm^-1.
(§2) Figure S2. Inhibition of full-length MKP3 mutant activity by BCI. The phosphatase activities (v0) of full-length MKP3 and its mutants (E81G, R83G, R85G, R87G, and R89A) at 1 µM concentration were measured using continuous spectrophotometric assays with 8 mM pNPP as the substrate, in the presence of ERK2 (1 µM), either without or with 2.5 μM BCI. Data are presented as mean ± SD (n = 3). Reactions were performed at 25 °C in a total volume of 1.8 mL, in a buffer containing 50 mM MOPS (pH 7.0), 100 mM NaCl, and 0.1 mM EDTA.

[2] = molecular target: T2, MKP3 T87G (Homo sapiens, UniProt Q16828, T87G); test: as above; assay type: biochemical; details: 1 µM enzyme, 1 µM ERK2, 8 mM pNPP, 2.5 μM BCI
T2 construct: MKP3(1–381) (MKP3^FL); made in house; host or cells: Escherichia coli BL21(DE3)
T2 sequence (Q16828 1-381 T87G): T1 sequence (Q16828 1-381 R89A) with T87G, A89R
Description: as §1, §2

[3] = molecular target: T3, MKP3 R85G (Homo sapiens, UniProt Q16828, R85G); test: as above; assay type: biochemical; details: 1 µM enzyme, 1 µM ERK2, 8 mM pNPP, 2.5 μM BCI
T3 construct: MKP3(1–381) (MKP3^FL); made in house; host or cells: Escherichia coli BL21(DE3)
T3 sequence (Q16828 1-381 R85G): T1 sequence (Q16828 1-381 R89A) with R85G, A89R
Description: as §1, §2

[4] = molecular target: T4, MKP3 R83G (Homo sapiens, UniProt Q16828, R83G); test: as above; assay type: biochemical; details: 1 µM enzyme, 1 µM ERK2, 8 mM pNPP, 2.5 μM BCI
T4 construct: MKP3(1–381) (MKP3^FL); made in house; host or cells: Escherichia coli BL21(DE3)
T4 sequence (Q16828 1-381 R83G): T1 sequence (Q16828 1-381 R89A) with R83G, A89R
Description: as §1, §2

[5] = molecular target: T5, MKP3 E81G (Homo sapiens, UniProt Q16828, E81G); test: as above; assay type: biochemical; details: 1 µM enzyme, 1 µM ERK2, 8 mM pNPP, 2.5 μM BCI
T5 construct: MKP3(1–381) (MKP3^FL); made in house; host or cells: Escherichia coli BL21(DE3)
T5 sequence (Q16828 1-381 E81G): T1 sequence (Q16828 1-381 R89A) with E81G, A89R
Description: as §1, §2

[6] = tested on: MKP3; details: cited from earlier work

Compound: O=C1/C(=C/c2ccccc2)C(NC2CCCCC2)c2ccccc21 (stereo not shown) [BCI, (E)-2-benzylidene-3-(cyclohexylamino)-2,3-dihydro-1H-inden-1-one]
- enzymatic activity upon BCI addition compared with MKP3^WT [1]: higher enzymatic activity than WT MKP3
- enzymatic activity upon BCI addition compared with MKP3^WT [2]: BCI inhibition comparable to MKP3^WT
- enzymatic activity upon BCI addition compared with MKP3^WT [3]: BCI inhibition comparable to MKP3^WT
- enzymatic activity upon BCI addition compared with MKP3^WT [4]: higher enzymatic activity than WT MKP3
- enzymatic activity upon BCI addition compared with MKP3^WT [5]: higher enzymatic activity than WT MKP3
- effect on ERK2-mediated MKP3 activity ([6]; ERK2-stimulated, OMFP substrate): inhibits
- effect on MKP3's basal activity toward OMFP ([6]; basal, without ERK2): does not affect
